Assay results taken from patent US20220324835A1 (Nurix Therapeutics, Inc., priority 2018, published 2022).
Read-outs that look alike come from different tables or passages of the source.

How the values were obtained:
[1] = system: T-cell; experiment: IL-2 secretion from T-cells co-stimulated with anti-CD3 and anti-CD28 antibody (Biological Example 2); assay type: cell-based, human; settings: Homo sapiens, T-cell, primary human total T-cells
Summary of the method: (§1)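 T-cells were stimulated with anti-CD3 antibody alone or with anti-CD28 antibody, in the presence or absence of Cbl-b inhibitor. IL-2 secretion or CD25 surface staining was measured, and values expressed as fold over the uninhibited baseline […].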

[2] = target: Cbl-b (Homo sapiens, UniProt Q13191); experiment: Cbl-b inhibition assay (Cbl-b activity assay, FRET, Biological Example 1; 100 mM NaCl, 60 nM Src kinase); assay type: biochemical; settings: upper bound stated in text lists; read-out: IC50 values in the Cbl-b inhibition assay of Biological Example 1
Chain of Cbl-b (Q13191 36-427): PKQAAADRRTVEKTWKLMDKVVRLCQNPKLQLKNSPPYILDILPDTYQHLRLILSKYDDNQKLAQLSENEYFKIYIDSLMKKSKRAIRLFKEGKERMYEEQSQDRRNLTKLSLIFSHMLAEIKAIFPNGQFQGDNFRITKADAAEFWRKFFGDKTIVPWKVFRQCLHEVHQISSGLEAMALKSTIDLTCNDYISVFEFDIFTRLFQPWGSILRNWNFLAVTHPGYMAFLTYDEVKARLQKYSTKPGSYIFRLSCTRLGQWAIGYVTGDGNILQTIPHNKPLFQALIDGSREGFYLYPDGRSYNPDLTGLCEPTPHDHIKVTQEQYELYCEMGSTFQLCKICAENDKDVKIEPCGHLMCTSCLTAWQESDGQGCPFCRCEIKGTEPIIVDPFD
Summary of the method: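 N-terminally biotinylated Avi-tagged Cbl-b was mixed with Src kinase, UbcH5B covalently conjugated to Bodipy-fluorescein ubiquitin, and streptavidin-terbium. Src phosphorylation lets Cbl-b bind UbcH5B-Ub, giving terbium-fluorescein FRET; inhibition is read as loss of FRET signal.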

[3] = system: T-cell; experiment: CD25 cell surface staining on T-cells co-stimulated with anti-CD3 and anti-CD28 antibody (Biological Example 2); assay type: cell-based, human; settings: Homo sapiens, T-cell, primary human total T-cells
Summary of the method: as §1

[4] = system: primary human NK cells; experiment: NK cell activation assessed by cytokine secretion (coculture with K562 NucRed target cells); assay type: cell-based; settings: for fold induction at 0.625 µM: 0.625 μM compound; for fold induction at 2.5 µM: 2.5 μM compound
Summary of the method: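 Primary NK cells from donor PBMC, IL-2 (60 ng/mL) overnight, then Cbl-b inhibitor (e.g. 10, 1 or 0.1 μM; DMSO <0.1%) for 1 h before 6 h coculture with K562 NucRed at effector:target ratios such as 5:1, 1:1 or 1:5. Supernatant IFNγ, TNFα, MIP1β measured by ELISA or Luminex; fold change over inhibitor-free baseline, >2.0-fold positive.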

[5] = K562, 1:1 E/T, read-out: IFNγ secretion
[6] = K562, 1:1 E/T, read-out: MIP1β secretion
[7] = K562, 1:1 E/T, read-out: TNFα secretion
[8] = K562, 1:1 E/T, 10 μM, read-out: IFNγ secretion
[9] = K562, 1:1 E/T, 10 μM, read-out: MIP1β secretion
[10] = K562, 1:1 E/T, 10 μM, read-out: TNFα secretion
[11] = K562, 5:1 E/T, read-out: IFNγ secretion
[12] = K562, 5:1 E/T, read-out: MIP1β secretion
[13] = K562, 5:1 E/T, read-out: TNFα secretion
[14] = K562, 5:1 E/T, 10 μM, read-out: IFNγ secretion
[15] = K562, 5:1 E/T, 10 μM, read-out: MIP1β secretion
[16] = K562, 5:1 E/T, 10 μM, read-out: TNFα secretion
[17] = K562, NK cells cocultured with K562 NucRed, 1:1 E/T, read-out: IFNγ secretion, fold change over baseline
[18] = K562, NK cells cocultured with K562 NucRed, 1:1 E/T, read-out: TNFα secretion, fold change over baseline
[19] = K562, NK cells cocultured with K562 NucRed, 1:1 E/T, 10 μM compound, read-out: IFNγ secretion, fold change over baseline
[20] = K562, NK cells cocultured with K562 NucRed, 1:1 E/T, 10 μM compound, read-out: TNFα secretion, fold change over baseline
[21] = 0.3 μM compound, baseline = anti-CD3/anti-CD28 stimulated cells without inhibitor, read-out: IL-2 secretion, Anti-CD3/Anti-CD28 stimulation, fold change over baseline
[22] = 1 μM compound, baseline = anti-CD3/anti-CD28 stimulated cells without inhibitor, read-out: IL-2 secretion, Anti-CD3/Anti-CD28 stimulation, fold change over baseline
[23] = 4 μM compound, baseline = anti-CD3/anti-CD28 stimulated cells without inhibitor, read-out: IL-2 secretion, Anti-CD3/Anti-CD28 stimulation, fold change over baseline
[24] = 0.3 μM compound, baseline = anti-CD3/anti-CD28 stimulated cells without inhibitor, read-out: CD25 staining, Anti-CD3/Anti-CD28 stimulation, fold change over baseline
[25] = 1 μM compound, baseline = anti-CD3/anti-CD28 stimulated cells without inhibitor, read-out: CD25 staining, Anti-CD3/Anti-CD28 stimulation, fold change over baseline
[26] = 4 μM compound, baseline = anti-CD3/anti-CD28 stimulated cells without inhibitor, read-out: CD25 staining, Anti-CD3/Anti-CD28 stimulation, fold change over baseline

SMILES | IC50 [2] [nM] | fold induction at 1 µM [4, 5] | fold induction at 1 µM [4, 6] | fold induction at 1 µM [4, 7] | fold induction at 10 µM [4, 8] | fold induction at 10 µM [4, 9] | fold induction at 10 µM [4, 10] | fold induction at 1 µM [4, 11] | fold induction at 0.625 µM [4, 17] | fold induction at 0.625 µM [4, 18] | fold induction at 2.5 µM [4, 17] | fold induction at 2.5 µM [4, 18] | fold induction at 10 µM [4, 19] | fold induction at 10 µM [4, 20] | fold induction at 0.3 µM [1, 21] | fold induction at 1 µM [1, 22] | fold induction at 4 µM [1, 23] | fold induction at 0.3 µM [3, 24] | fold induction at 1 µM [3, 25] | fold induction at 4 µM [3, 26] | further results
Cc1cc(C(=O)Nc2cccc([C@H](C)Cc3nncn3C)c2)nc(C2CC2)n1 [Compound 195, (R)-2-cyclopropyl-6-methyl-N-(3-(1-(4-methyl-4H-1,2,4-triazol-3-yl)propan-2-yl)phenyl)pyrimidine-4-carboxamide] | ≤ 100 | 2.01 to 5 | 1.01 to 2 | 2.01 to 5 | 2.01 to 5 | 2.01 to 5 | 2.01 to 5 | 2.01 to 5 | 2.01 to 5 | 1.01 to 2 | 2.01 to 5 | 2.01 to 5 | > 5 | 2.01 to 5 | – | – | – | – | – | – | fold induction at 0.3 µM ([1]; fold change over baseline, 0.3 μM Cbl-b inhibitor, read-out: IL-2 secretion Anti-CD3/Anti-CD28 stimulation): 5 to 7.5; fold induction at 1 µM ([1]; fold change over baseline, 1 μM Cbl-b inhibitor, read-out: IL-2 secretion Anti-CD3/Anti-CD28 stimulation): > 7.5; fold induction at 4 µM ([1]; fold change over baseline, 4 μM Cbl-b inhibitor, read-out: IL-2 secretion Anti-CD3/Anti-CD28 stimulation): > 7.5; fold induction at 0.3 µM ([3]; fold change over baseline, 0.3 μM Cbl-b inhibitor, read-out: CD25 staining Anti-CD3/Anti-CD28 stimulation): 1.51 to 1.75; fold induction at 1 µM ([3]; fold change over baseline, 1 μM Cbl-b inhibitor, read-out: CD25 staining Anti-CD3/Anti-CD28 stimulation): > 1.76; fold induction at 4 µM ([3]; fold change over baseline, 4 μM Cbl-b inhibitor, read-out: CD25 staining Anti-CD3/Anti-CD28 stimulation): > 1.76; fold induction at 1 µM [4, 12]: 2.01 to 5; fold induction at 1 µM [4, 13]: 2.01 to 5; fold induction at 10 µM [4, 14]: > 5; fold induction at 10 µM [4, 15]: 2.01 to 5; fold induction at 10 µM [4, 16]: > 5
C[C@H](Cc1nncn1C)c1cccc(N2Cc3c(cc(CN4CC[C@H](F)C4)cc3C(F)(F)F)C2=O)c1 [Compound 399, 6-(((S)-3-fluoropyrrolidin-1-yl)methyl)-2-(3-((R)-1-(4-methyl-4H-1,2,4-triazol-3-yl)propan-2-yl)phenyl)-4-(trifluoromethyl)isoindolin-1-one] | ≤ 100 | 2.01 to 5 | 1.01 to 2 | 2.01 to 5 | > 5 | 1.01 to 2 | 2.01 to 5 | 2.01 to 5 | 2.01 to 5 | 2.01 to 5 | > 5 | > 5 | > 5 | > 5 | 5 to 7.5 | > 7.5 | > 7.5 | 1.01 to 1.3 | 1.31 to 1.5 | 1.31 to 1.5 | fold induction at 1 µM [4, 12]: 1.01 to 2; fold induction at 1 µM [4, 13]: 2.01 to 5; fold induction at 10 µM [4, 14]: > 5; fold induction at 10 µM [4, 15]: 1.01 to 2; fold induction at 10 µM [4, 16]: > 5
C[C@H](Cc1nncn1C)c1cccc(NC(=O)c2cc3cc(N4CCNCC4)ccc3cn2)c1 [Compound 472, N-{3-[(2R)-1-(4-methyl-4H-1,2,4-triazol-3-yl)propan-2-yl]phenyl}-6-(piperazin-1-yl)isoquinoline-3-carboxamide] | ≤ 100 | – | – | – | – | – | – | – | < 1 | < 1 | 1.01 to 2 | < 1 | 2.01 to 5 | 1.01 to 2 | < 1 | 1.01 to 2.5 | 2.51 to 5 | 1.01 to 1.3 | 1.01 to 1.3 | 1.01 to 1.3 | –
COC1CN(Cc2cc3c(c(C(F)(F)F)c2)CN(c2cccc([C@@](C)(F)C(F)(F)c4nncn4C)c2)C3=O)C1 [Compound 452, (R)-6-((3-methoxyazetidin-1-yl)methyl)-2-(3-(1,1,2-trifluoro-1-(4-methyl-4H-1,2,4-triazol-3-yl)propan-2-yl)phenyl)-4-(trifluoromethyl)isoindolin-1-one] | ≤ 100 | – | – | – | – | – | – | – | > 5 | 1.01 to 2 | > 5 | 2.01 to 5 | > 5 | 2.01 to 5 | 2.51 to 5 | 5 to 7.5 | > 7.5 | 1.01 to 1.3 | 1.31 to 1.5 | 1.31 to 1.5 | –
